In patent publication US9187439B2, “Tricyclic compounds useful as neurogenic and neuroprotective agents” (INCEPTION 1, INC., priority 2011, dated 2015):

Tests used:
[1] = system: mitochondria isolated from HeLa cells; assay: HeLa cytochrome C release assay; format: biochemical; details: at a concentration of 10 μM; release initiated with t-Bid 25 nM
Procedure: HeLa Cytochrome C Release Assay
Inhibition of the pro-apoptotic protein cytochorome C by a compound of Formula I (and/or a compound of any of the other formulae described herein), was evaluated in mitochondria isolated from HeLa cells. In the assay, 10-20 million HeLa cells were resuspended in assay buffer (70 mM sucrose; 230 mM mannitol; 1 mM EDTA; 5 mM HEPES, pH 7 with KOH) containing protease inhibitor cocktail (Sigma P-8340) and treated with 1.5 μg/million cells digitonin for 5 minutes at 4° C. Cells were pelleted by centrifugation and washed twice with assay buffer containing 0.5% BSA. Cells were resuspended in assay buffer and homogenized with a Dounce homogenizer (60 strokes) on ice. Intact cells were removed by centrifugation (1000×g, 10 min) and the supernatant centrifuged (8,500×g, 10 min) The mitochondrial pellet was resuspended in assay buffer to achieve a protein concentration of 0.333 μg/ml. 15 μl of Test compound (at 5× dilution) was combined with 45 μl mitochondria and incubated for 15 min at RT. Cytochrome C release was initiated with 15 μl t-Bid (final conc=25 nM) and the reaction continued for 30 min at RT. Samples were then centrifuged (12,000×g, 10 min) and 50 μl of the supernatant analyzed for cytochrome C content by ELISA (R & D Systems, #DCTCO).

[2] = target: T1, Recombinant GST-Bax protein (Homo sapiens, UniProt Q07812); assay: BAX liposome assay; format: biochemical
T1 construct: purchased Abnova
Procedure: Inhibition of BAX oligomerization and pore formation was evaluated using a liposome assay preparation. To do so, 30% 1,2-dioleoyl-sn-glycero-3-phosphate and 70% 1,2-dioleoyl-sn-glycero-3-phosphocholine (Avanti Polar Lipids, Alabaster, Ala.) were mixed in chloroform followed by evaporation at 37° C. under nitrogen (Saito et al., 2000). Liposomes were then rehydrated with agitation in buffer containing 50 mM 10 kD-dextran carboxyfluorescein (dextran-CF, Invitrogen, Carlsbad, Calif.), 100 mM KCl, 1 mM EDTA and 20 mM HEPES at pH 7.4. Liposomes were then sized using 5 freeze-thaw cycles, 5 minutes in a sonication bath, followed by 3 passages through a 5 μm syringe filter and 5 passages through a 0.2 μm syringe filter. Free dextran-CF was removed by Sepharose S-300 size exclusion chromatography (GE Healthcare, Piscataway, N.J.). Recombinant GST-Bax protein (Abnova, Taipei, Taiwan) was activated by incubating for 30 minutes in 2% octyglucoside in the presence or absence of compound X in a 96-well plate. Liposomes were then added to the activated GST-Bax (final concentration 10 nM). Carboxyfluorescein release from liposomes was measured by excitation with 497 nm light and the […] monitored for 15 minutes.

[3] = system: SH-SY5Y human neuroblastoma cells; assay: In vitro human SHSY5Y survival assay (neuronal survival assay); format: cell-based; details: n=2
Procedure: In Vitro Human SHSY5Y Survival Assay
In order to determine if compounds effect cell survival, we tested them in an in vitro assay using the human neuroblastoma cell line SH-SY5Y. SH-SY5Y human neuroblastoma cells treated with retinoic acid for 5 days produce a homogeneous population of neuronal differentiated cells that are strictly dependant on BDNF for their survival. SH-SY5Y cells are plated on 96-well collagen coated plates and incubated for 24 hours. Retinoic acid is then added and incubated on the cells for 5 days. After 5 days, media with retinoic acid is removed and replaced with serum free media+/−compound. Each plate includes basal media (negative) and BDNF (positive) controls. The cells are then fixed with paraformaldehyde (3.7%) and stained with the nuclear marker Hoechst and the neuronal marker beta-Tubulin III. The plate is imaged using the In Cell Analyzer 2000™. Each well is imaged in 9 different spots throughout the well. The images are analyzed with a custom-designed algorithm using the In Cell Developer™ software. Data is averaged per compound concentration and calculated as a background subtracted percent of positive control.

T1 sequence (Q07812 whole entry): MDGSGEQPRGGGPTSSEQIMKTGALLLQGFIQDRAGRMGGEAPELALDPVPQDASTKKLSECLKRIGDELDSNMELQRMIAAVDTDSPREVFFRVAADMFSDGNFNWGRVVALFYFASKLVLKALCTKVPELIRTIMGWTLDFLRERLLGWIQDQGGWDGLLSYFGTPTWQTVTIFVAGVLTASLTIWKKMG

SMILES | inhibition of cytochrome C release [1] [%] | IC50 [2] [µM] | EC50 [3] [µM]
FC(F)(F)c1ccc2c(c1)N(CCCN1CC3(CNC3)C1)c1ccccc1S2 [Example 4, 10-(3-(2,6-diazaspiro[3.3]heptan-2-yl)propyl)-2-(trifluoromethyl)-10H-phenothiazine] | 27 |  | 
OC(CN1CC2(COC2)C1)CN1c2ccccc2Sc2ccc(C(F)(F)F)cc21 (racemic) [Example 1, (±)-1-(2-oxa-6-azaspiro[3.3]heptan-6-yl)-3-(2-(trifluoromethyl)-10H-phenothiazin-10-yl)propan-2-ol] |  | 24.6 | 0.509
OC(CN1CC2(CNC2)C1)CN1c2ccccc2Sc2ccc(C(F)(F)F)cc21 (racemic) [Example 3, (±)-1-(2,6-diazaspiro[3.3]heptan-2-yl)-3-(2-(trifluoromethyl)-10H-phenothiazin-10-yl)propan-2-ol] | 93 |  | 
